{"source": "patent US10758506B2", "about": "“Amino acid compositions for the treatment of porcine epidemic diarrhea” (priority 2014, dated 2020)", "origin": "cited, not measured here", "data": [{"conditions": "Health Phys., 106(6):734-44, 2014", "values": [{"smiles": "NC(=O)CC[C@H](N)C(=O)O", "note": "[glutamine]", "active anion secretion and/or paracellular permeability": "activate active anion secretion and/or increase paracellular permeability"}, {"smiles": "N[C@@H](Cc1c[nH]cn1)C(=O)O", "note": "[histidine]", "active anion secretion and/or paracellular permeability": "activate active anion secretion and/or increase paracellular permeability"}, {"smiles": "N[C@@H](Cc1ccccc1)C(=O)O", "note": "[phenylalanine]", "active anion secretion and/or paracellular permeability": "activate active anion secretion and/or increase paracellular permeability"}, {"smiles": "N[C@@H](CS)C(=O)O", "note": "[cysteine]", "active anion secretion and/or paracellular permeability": "activate active anion secretion and/or increase paracellular permeability"}, {"smiles": "NC(=O)C[C@H](N)C(=O)O", "note": "[asparagine]", "active anion secretion and/or paracellular permeability": "activate active anion secretion and/or increase paracellular permeability"}, {"smiles": "CSCC[C@H](N)C(=O)O", "note": "[methionine]", "active anion secretion and/or paracellular permeability": "activate active anion secretion and/or increase paracellular permeability"}, {"smiles": "N[C@@H](CCC(=O)O)C(=O)O", "note": "[glutamic acid]", "active anion secretion and/or paracellular permeability": "activate active anion secretion and/or increase paracellular permeability"}, {"smiles": "C[C@H](N)C(=O)O", "note": "[alanine]", "active anion secretion and/or paracellular permeability": "activate active anion secretion and/or increase paracellular permeability"}, {"smiles": "N=C(N)NCCC[C@H](N)C(=O)O", "note": "[Arginine]", "active anion secretion and/or paracellular permeability": "activate active anion secretion and/or increase paracellular permeability"}, {"smiles": "CC(C)C[C@H](N)C(=O)O", "note": "[leucine]", "active anion secretion and/or paracellular permeability": "activate active anion secretion and/or increase paracellular permeability"}]}]}
